# Experiments:
# Wistar (WI) rats = assay: Forced swimming test (FST), WI rats; type: in vivo, rat; settings: dose-ranging, Fig. 6A
# Procedure: 3B-methoxy-PREG (also referred to as "MAP4343" in Example 4) was dissolved in sesame oil by sonication using a Sonifer-450 (Branson Ultrasonics Corporation, Danbury, USA) during 1 cycle of 5 pulses in sesame oil. Fluoxetine (Biotrend, Köln, Germany) and Ketamine (Sigma-Aldrich, St-Quentin Fallvier, France) were dissolved in sterile saline solution (NaCl 0.9%). The drug formulations were prepared freshly each day of treatment. MAP4343 was administered subcutaneously (ranging of 1-15 mg/Kg/day) while fluoxetine and ketamine were injected intraperitonealy (10 mg/Kg/day and 30 mg/Kg/day, respectively).
# Rats were submitted to the forced swimming test (FST), according the procedure initially described by (Detke et al., 1995) and slightly modified by (Bianchi et al., 2002). Briefly, rats were individually placed into a Plexiglas cylinder (40 cm height, 20 cm diameter) containing 25 cm of water at 25 ± 1°C, under 50 lux illumination. After a pre-test session of 15 min, rats were removed, dried and returned to its housed cage. […] The pre-test and test sessions were recorded using a video camera placed above the cylinder for subsequent behavioral analysis. The immobility time (in sec) was blindly measured by two independent experimenters from recorded videos. […]
# The effects of a dose-ranging administration of MAP4343 were tested in WI and WKY rats on their immobility time measured in FST.
# Noradrenergic β2 = Noradrenergic β2 (Homo sapiens, UniProt P07550); assay: CNS receptor binding assay, β2; settings: MAP4343 10 µM; [^3H] (-) CGP 12178; Human recombinant (CHO cells); read-out: % Inhibition of control specific binding
# Procedure: (§1) MAP4343 has been screened for in vitro affinity to 80 different CNS neurotransmitters receptors using various validated binding assays.
# (§2) Table 4. In vitro affinity of MAP4343 (10 µM) for CNS neurotransmitter receptors associated with side effects and/or abuse liability. Data are the average of two individual assays for each receptor and are expressed as % inhibition of the control specific binding of the reference compound. Results showing an inhibition higher than 50% are considered to represent significant effects of the test compound.
# Oppioid δ2 = Oppioid δ2 (Homo sapiens, UniProt P41143); assay: CNS receptor binding assay, opioid δ2; settings: MAP4343 10 µM; [^3H] DADLE; Human recombinant (CHO cells); read-out: % Inhibition of control specific binding
# Procedure: as §1, §2
# Dopaminergic D3 = Dopaminergic D3 (Homo sapiens, UniProt P35462); assay: CNS receptor binding assay, D3; settings: MAP4343 10 µM; [^3H] spiperone; Human recombinant (CHO cells); read-out: % Inhibition of control specific binding
# Procedure: as §1, §2
# Serotoninergic 5-HT2A = Serotoninergic 5-HT2A (Homo sapiens, UniProt P28223); assay: CNS receptor binding assay, 5-HT2A; settings: MAP4343 10 µM; [^3H] ketanserin; Human recombinant (HEK-293 cells); read-out: % Inhibition of control specific binding
# Procedure: as §1, §2
# Serotoninergic 5-HT5A = Serotoninergic 5-HT5A (Homo sapiens, UniProt P47898); assay: CNS receptor binding assay, 5-HT5A; settings: MAP4343 10 µM; [^3H] LSD; Human recombinant (CHO cells); read-out: % Inhibition of control specific binding
# Procedure: as §1, §2
# [1] = biological target: Noradrenergic Transporter (Homo sapiens, UniProt P23975); assay: CNS receptor binding assay, noradrenergic transporter; settings: MAP4343 10 µM; [^3H] nisoxetine; Human recombinant (CHO cells); read-out: % Inhibition of control specific binding
# Procedure: as §1, §2
# Wistar Kyoto (WKY) rats = assay: Locomotor activity in the open-field arena, WKY rats; type: in vivo, rat; settings: acute, MAP4343 10 mg/kg s.c., fluoxetine 10 mg/kg i.p., ketamine 30 mg/kg i.p., 3 min, Fig. 5A
# Procedure: After a 6-day period of acclimatization, all experimental groups received daily successive subcutaneous (250 µl per rat) and intraperitoneal (1 ml/kg) injections. WI rats received injection of vehicle (sesame oil + saline) while WKY rats were randomly assigned to […], as follow: KWY rats receiving only vehicle (sesame oil + saline) and WKY rats treated with MAP4343 (10 mg/kg, s.c.; rats received in parallel i.p. injections of saline), fluoxetine (10 mg/kg i.p., rats received in parallel s.c. injections of sesame oil) or ketamine (30 mg/kg, i.p.; rats received in parallel s.c. injections of sesame oil) (see Figure 3).
# After, a 6-day period of acclimatization, the acute phase of treatment started for 4 days during behavioral tests were performed (Figure 3). All animals were injected 1h30 before the starting of behavioral test.
# The animals were individually placed in the open field arena (OFA) (70 x 100 x 70 cm), with a central square (35 x 50 cm), located in a 50 lux illuminated room and videotaped during 3 min using a computerized system (VideoTrack V2.5, ViewPoint, Lyon, France).
# OFA allows firstly the evaluation of total locomotor activity (LMA) thereby measuring the total distance travelled in the arena (in cm). Secondly, measurements of the activity in the center of the arena like (i) the number of entries in the center of arena and (ii) the total time spent in the center of arena (in sec) provide cues of anxiety-like behavior (Prut and Belzung, 2003). All these behavioral parameters were instantaneously measured automatically with the VideoTrack V2.5 software from the videos.
# Dopaminergic D2S = Dopaminergic D2S (Homo sapiens, UniProt P14416); assay: CNS receptor binding assay, D2S; settings: MAP4343 10 µM; [^3H] spiperone; Human recombinant (HEK-293 cells); read-out: % Inhibition of control specific binding
# Procedure: as §1, §2
# GABA (non-selective) = assay: CNS receptor binding assay, GABA (non-selective); settings: MAP4343 10 µM; [^3H] GABA; rat cerebral cortex
# Procedure: as §1, §2
# [2] = biological target: T1, Muscarinic (Cholinergic) M5 (Homo sapiens, UniProt P08912); assay: CNS receptor binding assay, M5; settings: MAP4343 10 µM; [^3H] 4-DAMP; Human recombinant (CHO cells); read-out: % Inhibition of control specific binding
# T1 construct: expressed in transfected cells; host or cells: CHO cells
# Procedure: as §1, §2
# [3] = biological target: T2, Mineralocorticoid Receptor (MR) (Rattus norvegicus, UniProt P22199); assay: Radioligand binding assay, steroid hormone receptor MR; settings: MAP4343 10 µM; 4.5 nM [^3H] D-Aldosterone; Wistar Rat kidney
# T2 construct: Wistar Rat kidney; from tissue; host or cells: Wistar rat kidney
# Procedure: Binding affinity of 3β-methoxy-PREG (MAP4343) for receptors of steroid hormones was evaluated using radioligand binding assays.
# Table 3. Affinity of MAP4343 (10 µM) for steroid hormones receptors measured by radioligand binding assays. […] None of the results met significance criteria at concentrations used.
# T2 sequence (P22199 whole entry): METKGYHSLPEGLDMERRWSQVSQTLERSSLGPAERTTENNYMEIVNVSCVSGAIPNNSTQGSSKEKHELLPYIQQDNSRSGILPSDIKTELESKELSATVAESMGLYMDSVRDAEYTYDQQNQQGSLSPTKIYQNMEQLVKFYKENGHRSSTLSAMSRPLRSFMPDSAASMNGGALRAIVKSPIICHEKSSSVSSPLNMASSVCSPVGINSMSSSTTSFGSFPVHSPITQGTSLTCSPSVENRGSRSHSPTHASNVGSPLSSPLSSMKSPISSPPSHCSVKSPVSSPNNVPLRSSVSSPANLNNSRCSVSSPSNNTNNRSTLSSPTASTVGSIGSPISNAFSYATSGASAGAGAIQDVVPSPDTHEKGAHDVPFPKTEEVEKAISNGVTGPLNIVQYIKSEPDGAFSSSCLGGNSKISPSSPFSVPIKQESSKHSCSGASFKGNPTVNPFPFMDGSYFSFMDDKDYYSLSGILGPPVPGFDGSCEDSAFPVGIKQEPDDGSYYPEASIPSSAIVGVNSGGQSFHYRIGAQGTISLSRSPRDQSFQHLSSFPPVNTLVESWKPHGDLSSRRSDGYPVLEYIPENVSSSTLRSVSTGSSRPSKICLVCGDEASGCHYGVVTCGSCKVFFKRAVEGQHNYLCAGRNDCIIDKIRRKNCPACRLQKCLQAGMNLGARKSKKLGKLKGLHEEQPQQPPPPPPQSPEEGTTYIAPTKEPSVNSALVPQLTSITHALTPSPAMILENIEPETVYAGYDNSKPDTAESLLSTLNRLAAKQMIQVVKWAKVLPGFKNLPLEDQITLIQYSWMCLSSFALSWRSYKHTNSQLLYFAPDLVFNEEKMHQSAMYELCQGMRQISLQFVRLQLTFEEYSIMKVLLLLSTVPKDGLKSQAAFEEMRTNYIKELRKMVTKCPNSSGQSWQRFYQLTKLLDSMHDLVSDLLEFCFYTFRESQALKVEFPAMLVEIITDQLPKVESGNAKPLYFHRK
# Sequence of Serotoninergic 5-HT5A (P47898 whole entry): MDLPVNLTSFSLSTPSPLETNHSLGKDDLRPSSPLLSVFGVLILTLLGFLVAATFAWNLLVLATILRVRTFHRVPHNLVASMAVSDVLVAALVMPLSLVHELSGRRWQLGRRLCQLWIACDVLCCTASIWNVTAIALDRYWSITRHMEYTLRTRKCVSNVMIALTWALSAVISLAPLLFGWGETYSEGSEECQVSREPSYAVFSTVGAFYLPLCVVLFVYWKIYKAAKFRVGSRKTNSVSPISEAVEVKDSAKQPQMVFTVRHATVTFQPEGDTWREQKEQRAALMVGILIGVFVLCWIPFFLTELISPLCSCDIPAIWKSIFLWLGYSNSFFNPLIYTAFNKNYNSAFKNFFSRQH
# Sequence of Noradrenergic β2 (P07550 whole entry): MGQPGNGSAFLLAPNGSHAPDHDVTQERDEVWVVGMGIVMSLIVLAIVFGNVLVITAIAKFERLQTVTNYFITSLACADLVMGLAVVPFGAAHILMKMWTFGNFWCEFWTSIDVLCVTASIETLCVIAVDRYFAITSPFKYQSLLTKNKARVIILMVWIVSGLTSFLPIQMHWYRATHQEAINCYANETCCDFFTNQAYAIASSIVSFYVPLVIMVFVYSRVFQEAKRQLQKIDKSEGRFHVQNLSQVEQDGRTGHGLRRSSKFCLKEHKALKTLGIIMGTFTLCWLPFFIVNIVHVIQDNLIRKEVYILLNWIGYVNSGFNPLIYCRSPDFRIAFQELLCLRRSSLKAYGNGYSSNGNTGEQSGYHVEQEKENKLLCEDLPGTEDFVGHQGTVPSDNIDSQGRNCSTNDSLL
# Sequence of Serotoninergic 5-HT2A (P28223 whole entry): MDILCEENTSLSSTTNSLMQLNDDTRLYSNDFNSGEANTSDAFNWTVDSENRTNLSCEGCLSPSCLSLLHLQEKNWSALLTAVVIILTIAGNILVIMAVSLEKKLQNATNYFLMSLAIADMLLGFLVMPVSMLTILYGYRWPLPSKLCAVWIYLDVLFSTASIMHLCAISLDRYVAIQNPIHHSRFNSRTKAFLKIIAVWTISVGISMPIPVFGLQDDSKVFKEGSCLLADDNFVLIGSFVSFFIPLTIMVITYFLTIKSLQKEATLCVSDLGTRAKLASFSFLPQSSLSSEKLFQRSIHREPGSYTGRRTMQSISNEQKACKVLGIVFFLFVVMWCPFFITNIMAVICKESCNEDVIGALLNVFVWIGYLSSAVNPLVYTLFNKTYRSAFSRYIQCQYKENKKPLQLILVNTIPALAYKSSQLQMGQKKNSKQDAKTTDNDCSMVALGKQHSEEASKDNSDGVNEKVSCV
# Sequence of Dopaminergic D2S (P14416 1-414 isoform P14416-2): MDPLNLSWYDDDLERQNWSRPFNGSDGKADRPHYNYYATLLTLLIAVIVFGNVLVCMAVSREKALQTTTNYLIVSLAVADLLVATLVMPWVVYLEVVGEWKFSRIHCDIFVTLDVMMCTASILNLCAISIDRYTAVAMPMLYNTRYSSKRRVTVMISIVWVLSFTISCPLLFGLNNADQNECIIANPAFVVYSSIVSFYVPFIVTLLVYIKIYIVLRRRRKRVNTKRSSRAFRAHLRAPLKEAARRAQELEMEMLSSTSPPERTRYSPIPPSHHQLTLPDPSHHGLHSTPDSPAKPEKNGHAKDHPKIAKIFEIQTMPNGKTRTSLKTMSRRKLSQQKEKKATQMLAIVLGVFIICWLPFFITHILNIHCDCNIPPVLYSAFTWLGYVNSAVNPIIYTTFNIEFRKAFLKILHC
# Sequence of Noradrenergic Transporter (P23975 whole entry): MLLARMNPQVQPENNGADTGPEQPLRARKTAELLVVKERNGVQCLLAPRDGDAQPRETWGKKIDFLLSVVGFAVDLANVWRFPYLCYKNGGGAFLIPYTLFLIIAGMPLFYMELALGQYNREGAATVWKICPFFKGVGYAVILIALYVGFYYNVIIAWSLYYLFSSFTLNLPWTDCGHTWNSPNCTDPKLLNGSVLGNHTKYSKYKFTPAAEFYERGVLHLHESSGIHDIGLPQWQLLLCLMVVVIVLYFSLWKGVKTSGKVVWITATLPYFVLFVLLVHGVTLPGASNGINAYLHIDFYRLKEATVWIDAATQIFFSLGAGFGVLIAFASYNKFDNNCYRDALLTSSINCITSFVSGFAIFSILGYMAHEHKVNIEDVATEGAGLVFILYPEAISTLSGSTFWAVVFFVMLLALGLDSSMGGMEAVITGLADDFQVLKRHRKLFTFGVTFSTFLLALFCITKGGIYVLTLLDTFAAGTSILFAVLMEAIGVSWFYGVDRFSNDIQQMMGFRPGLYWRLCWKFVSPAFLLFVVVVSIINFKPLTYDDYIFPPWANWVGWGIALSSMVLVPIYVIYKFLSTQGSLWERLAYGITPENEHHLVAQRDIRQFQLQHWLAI
# T1 sequence (P08912 whole entry): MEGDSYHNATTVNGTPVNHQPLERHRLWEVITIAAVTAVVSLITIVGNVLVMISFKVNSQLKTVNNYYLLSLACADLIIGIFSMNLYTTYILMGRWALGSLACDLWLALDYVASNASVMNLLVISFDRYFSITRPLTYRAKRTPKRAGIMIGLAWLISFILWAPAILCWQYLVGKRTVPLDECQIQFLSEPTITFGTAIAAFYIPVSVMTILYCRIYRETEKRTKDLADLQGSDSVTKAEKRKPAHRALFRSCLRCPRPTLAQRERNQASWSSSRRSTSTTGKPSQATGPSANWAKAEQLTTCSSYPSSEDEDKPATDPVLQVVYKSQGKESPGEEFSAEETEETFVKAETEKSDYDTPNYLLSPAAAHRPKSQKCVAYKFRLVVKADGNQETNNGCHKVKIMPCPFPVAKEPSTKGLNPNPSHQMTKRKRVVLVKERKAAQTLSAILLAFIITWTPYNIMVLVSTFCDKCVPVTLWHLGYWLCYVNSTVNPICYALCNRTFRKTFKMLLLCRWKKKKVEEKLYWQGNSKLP
# Sequence of Dopaminergic D3 (P35462 whole entry): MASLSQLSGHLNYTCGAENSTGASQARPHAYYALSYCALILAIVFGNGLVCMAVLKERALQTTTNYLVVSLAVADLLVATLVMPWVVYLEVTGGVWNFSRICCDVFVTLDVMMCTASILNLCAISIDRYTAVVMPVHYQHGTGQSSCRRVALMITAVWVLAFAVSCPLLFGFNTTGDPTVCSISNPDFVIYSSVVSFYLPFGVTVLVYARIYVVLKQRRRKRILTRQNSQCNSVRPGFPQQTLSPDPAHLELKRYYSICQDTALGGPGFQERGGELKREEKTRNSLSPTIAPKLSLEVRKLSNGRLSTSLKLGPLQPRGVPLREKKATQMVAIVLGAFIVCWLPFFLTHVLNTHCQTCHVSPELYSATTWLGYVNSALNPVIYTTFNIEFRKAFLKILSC
# Sequence of Oppioid δ2 (P41143 whole entry): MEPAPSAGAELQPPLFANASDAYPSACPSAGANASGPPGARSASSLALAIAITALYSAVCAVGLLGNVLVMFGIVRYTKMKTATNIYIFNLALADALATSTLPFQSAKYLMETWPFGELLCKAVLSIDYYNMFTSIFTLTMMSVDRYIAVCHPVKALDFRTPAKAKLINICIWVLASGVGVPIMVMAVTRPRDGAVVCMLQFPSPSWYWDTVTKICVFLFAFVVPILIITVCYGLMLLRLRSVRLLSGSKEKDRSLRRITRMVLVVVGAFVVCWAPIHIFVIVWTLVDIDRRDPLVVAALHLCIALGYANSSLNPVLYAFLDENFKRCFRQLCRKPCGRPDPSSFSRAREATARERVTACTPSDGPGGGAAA
smiles,measurement,setting,value
"CO[C@H]1CC[C@@]2(C)C(=CC[C@H]3[C@@H]4CC[C@H](C(C)=O)[C@@]4(C)CC[C@@H]32)C1 (stereo in doubt) [MAP4343, 3β-methoxy-pregna-5-ene-20-one]","immobility time measured in FST, change as compared to WI receiving vehicle alone",Wistar (WI) rats; MAP4343 10 mg/kg,-27%
same,"immobility time measured in FST, change as compared to WI receiving vehicle alone",Wistar (WI) rats; MAP4343 15 mg/kg,-31%
same,inhibition at 10 µM,Noradrenergic β2,-4%
same,inhibition at 10 µM,Oppioid δ2,-3%
same,inhibition at 10 µM,Dopaminergic D3,8%
same,inhibition at 10 µM,Serotoninergic 5-HT2A,1%
same,inhibition at 10 µM,Serotoninergic 5-HT5A,-5%
same,inhibition at 10 µM,[1],3%
same,"locomotor activity (total distance travelled in the open-field arena), change as compared to WKY receiving vehicle",Wistar Kyoto (WKY) rats,did not modify significantly
same,inhibition at 10 µM,Dopaminergic D2S,6%
same,% Inhibition of control specific binding,GABA (non-selective),2%
same,inhibition at 10 µM,[2],12%
same,% inhibition,[3],25%
same,inhibition at 10 µM,[3],< 25%
